Reference: ChEMBL document CHEMBL1126577, “Studies of the synthesis, immunology, and cytotoxicity of a cyclic octapeptide corresponding to TNF-alpha-(59-66)” (1993)
Bridge positions count the residues as written; N and C are the ends. Peptide text beside a SMILES is read from it.

Legend:
[1] = species: Homo sapiens; test: Tested for induction of interleukin-1 production from human monocyte of 1x 10 e5 cells at 10 ug/mL; assay type: functional
[2] = species: Homo sapiens; test: Tested for induction of interleukin-1 production from human peripheral blood mononuclear cell (PBMC) of 2x10 e6 cells at 1 ug/mL; assay type: functional
[3] = tested on: HEp-2; test: Tested for cytotoxicity index against HEP-2 cell line by MTT method at 0.1 ug/mL concentration; assay type: functional, Homo sapiens
[4] = tested on: HEp-2; test: Tested for cytotoxicity index against HEP-2 cell line by MTT method at 1.0 ug/mL concentration; assay type: functional, Homo sapiens
[5] = tested on: HeLa; test: Tested for cytotoxicity index against HeLa cell line by MTT method at 1.0 ug/mL concentration; assay type: functional, Homo sapiens
[6] = tested on: HeLa; test: Tested for cytotoxicity index against HeLa cell line by MTT method at 0.1 ug/mL concentration; assay type: functional, Homo sapiens
[7] = species: Homo sapiens; test: Tested for induction of interleukin-1 from human peripheral blood mononuclear cell (PBMC) of 2x10 e6 cells at 1 ug/mL; assay type: functional

**Q.** Which IL-1 production [1] does the source give for `CC(C)C[C@@H]1NC(=O)[C@H](CCC(N)=O)NC(=O)[C@@H](N)CC(=O)NCCCC[C@@H](C(=O)NCC(=O)O)NC(=O)[C@H](CO)NC1=O` (H-DQLSKG-OH; lactam 1-5) here?
**A.** 1047 pg/mL

**Q.** And the IL-1 production [2]?
**A.** 579 pg/mL

**Q.** How did the Cytotoxicity index [3] turn out when `COc1cccc2c1C(=O)c1c(O)c3c(c(O)c1C2=O)C[C@@](O)(C(=O)CO)C[C@@H]3O[C@H]1C[C@H](N)[C@H](O)[C@H](C)O1` [DOXORUBICIN] was run?
**A.** 39

**Q.** What about the Cytotoxicity index [4] of the same compound?
**A.** 75.5

**Q.** And the Cytotoxicity index [5]?
**A.** 96.6

**Q.** What about the Cytotoxicity index [6] of the same compound?
**A.** 50.6

**Q.** Which IL-1 production [7] does the source give for H-KGDRLS-OH [TNF-ALPHA] here?
**A.** 741 pg/mL
